From ChEMBL document CHEMBL1157067, “Agelastatin E, agelastatin F, and benzosceptrin C from the marine sponge Agelas dendromorpha” (2010)
Activity calls are given as the source filed them. No cut-off for these calls is given here.

Test system: KB
Experiment: Cytotoxicity against human KB cells at 30 uM
Assay type: functional

| Compound | Activity |
| --- | --- |
| Nc1nc([C@H]2[C@H](CNC(=O)c3cc(Br)c[nH]3)[C@@H](CNC(=O)c3cc(Br)c[nH]3)[C@@H]2c2c[nH]c(N)n2)c[nH]1 | inactive |
| N=C1N=C(NCCS(=O)(=O)O)/C(=C/CCNC(=O)c2cc(Br)c(Br)[nH]2)N1 | inactive |
| NC(=O)c1cc(Br)c(Br)[nH]1 | inactive |
| Nc1nc2c([nH]1)c1c(c3[nH]c(N)nc32)[C@H](CNC(=O)c2cc(Br)c(Br)[nH]2)[C@H]1CNC(=O)c1cc(Br)c(Br)[nH]1 | inactive |
| C[C@]1(COC(=O)c2cc(Br)c[nH]2)C[C@@H](C(=O)O)N=CN1 | inactive |
| CN1C(=O)N[C@H]2[C@@H]3NC(=O)c4ccc(Br)n4[C@@H]3C[C@]21O [AGELASTATIN A] | 100% |
| O=C1N[C@H]2[C@@H]3NC(=O)c4ccc(Br)n4[C@@H]3C[C@@]2(O)N1 | inactive |
| N=C1N=C(NCCS(=O)(=O)O)/C(=C/C(O)CNC(=O)c2cc(Br)c(Br)[nH]2)N1 (centres undefined) | inactive |
| O=C1N[C@H]2[C@@H]3NC(=O)c4cc(Br)c(Br)n4[C@@H]3C[C@@]2(O)N1 | inactive |
| O=C1NCC(O)n2c1cc(Br)c2Br (centres undefined) | inactive |
| Cc1c[nH]c(=O)[nH]c1=O | inactive |
| CO[C@@]12C[C@@H]3[C@@H](NC(=O)c4ccc(Br)n43)[C@@H]1NC(=O)N2C | inactive |
| c1ccc2c(-c3c[nH]c(-c4c[nH]c5ccccc45)n3)c[nH]c2c1 | inactive |

Test system: KB
Experiment: Cytotoxicity against human KB cells at 3 uM
Assay type: functional

| Compound | Activity |
| --- | --- |
| CN1C(=O)N[C@H]2[C@@H]3NC(=O)c4ccc(Br)n4[C@@H]3C[C@]21O [AGELASTATIN A] | 100% |
